Data published in patent publication US7517874B2 (priority 2007, dated 2009).

What was measured:
rat CB2 receptor (rCB2) = target: T1, rat CB2 receptor (rCB2) (Rattus norvegicus, UniProt Q9QZN9); experiment: cell-based; type: cell-based; details: for +/− RCB2: agonist or inverse agonist at rCB2
T1 sequence (Q9QZN9 1-360): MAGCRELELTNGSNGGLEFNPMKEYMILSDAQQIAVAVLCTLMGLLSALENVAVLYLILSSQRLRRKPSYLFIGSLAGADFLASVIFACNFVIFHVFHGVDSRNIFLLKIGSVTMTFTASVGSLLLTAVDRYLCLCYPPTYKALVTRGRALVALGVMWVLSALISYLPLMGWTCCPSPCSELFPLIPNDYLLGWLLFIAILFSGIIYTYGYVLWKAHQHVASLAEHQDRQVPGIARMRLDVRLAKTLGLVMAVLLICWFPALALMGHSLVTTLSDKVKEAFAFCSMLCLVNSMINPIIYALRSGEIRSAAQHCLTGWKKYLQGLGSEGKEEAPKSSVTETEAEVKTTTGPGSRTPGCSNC
In short: (§1)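 Agonism or inverse agonism was assessed as change in intracellular cAMP in CHO-K1 cells expressing human CB1 or rat CB2 (genomic DNA, pcDNA3.1).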

[1] = target: human CB1 receptor (hCB1) (Homo sapiens, UniProt P21554); experiment: cell-based; type: cell-based
In short: as §1

Sequence of human CB1 receptor (hCB1) (P21554 whole entry): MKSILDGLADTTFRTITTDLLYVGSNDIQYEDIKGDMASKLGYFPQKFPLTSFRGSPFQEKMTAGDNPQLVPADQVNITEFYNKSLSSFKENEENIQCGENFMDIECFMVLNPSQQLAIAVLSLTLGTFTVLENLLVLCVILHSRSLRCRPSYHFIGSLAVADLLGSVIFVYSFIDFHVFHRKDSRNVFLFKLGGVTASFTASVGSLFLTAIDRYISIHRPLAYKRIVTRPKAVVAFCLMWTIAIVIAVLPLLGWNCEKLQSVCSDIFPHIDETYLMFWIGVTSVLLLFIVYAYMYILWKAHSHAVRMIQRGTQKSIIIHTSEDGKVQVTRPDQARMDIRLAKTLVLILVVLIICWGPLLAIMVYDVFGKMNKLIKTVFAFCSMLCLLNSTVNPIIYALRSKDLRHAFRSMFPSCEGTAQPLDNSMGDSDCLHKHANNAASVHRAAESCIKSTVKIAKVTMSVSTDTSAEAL

Row | SMILES | EC50 (rat CB2 receptor (rCB2)) [µM] | EC50 [1] [µM] | +/− RCB2 (rat CB2 receptor (rCB2))
1 | CNC(=O)[C@@H](NC(=O)c1nc(-c2ccccc2)n2c1CN(c1cnccn1)CC2)C(C)(C)C [Compound 301, (S)-N-(3,3-dimethyl-1-(methylamino)-1-oxobutan-2-yl)-3-phenyl-7-(pyrazin-2-yl)-5,6,7,8-tetrahydroimidazo[1,5-a]pyrazine-1-carboxamide] | > 10 | > 10 | 
2 | CNC(=O)[C@H](NC(=O)c1nc(-c2ccccc2)n2c1CN(C)CC2)C(C)(C)C [Compound 302, (R)-N-(3,3-dimethyl-1-(methylamino)-1-oxobutan-2-yl)-7-methyl-3-phenyl-5,6,7,8-tetrahydroimidazo[1,5-a]pyrazine-1-carboxamide] | > 10 | > 10 | 
3 | CNC(=O)[C@@H](NC(=O)c1nc(C2CCCC2)n2c1CN(C)CC2)C(C)(C)C [Compound 303, (S)-3-cyclopentyl-N-(3,3-dimethyl-1-(methylamino)-1-oxobutan-2-yl)-7-methyl-5,6,7,8-tetrahydroimidazo [1,5-a]pyrazine-1-carboxamide] |  | > 10 | +
4 | CCCc1nc(C(=O)N[C@H](C(=O)NC)C(C)(C)C)c2n1CCN(C)C2 [Compound 304, (S)-N-(3,3-dimethyl-1-(methylamino)-1-oxobutan-2-yl)-7-methyl-3-propyl-5,6,7,8-tetrahydroimidazo[1,5-a]pyrazine-1-carboxamide] |  | > 10 | +
5 | CNC(=O)[C@@H](NC(=O)c1nc(C2CCCCC2)n2c1CN(C)CC2)C(C)(C)C [Compound 305, (S)-3-cyclohexyl-N-(3,3-dimethyl-1-(methylamino)-1-oxobutan-2-yl)-7-methyl-5,6,7,8-tetrahydroimidazo[1,5-a]pyrazine-1-carboxamide] |  | > 10 | +
6 | CNC(=O)[C@@H](NC(=O)c1nc(CC(C)C)n2c1CN(C)CC2)C(C)(C)C [Compound 306, (S)-N-(3,3-dimethyl-1-(methylamino)-1-oxobutan-2-yl)-3-isobutyl-7-methyl-5,6,7,8-tetrahydroimidazo[1,5-a]pyrazine-1-carboxamide] |  | > 10 | +
7 | CNC(=O)[C@@H](NC(=O)c1nc(CCCN2CCCCC2)n2c1CN(C)CC2)C(C)(C)C [Compound 307, (S)-N-(3,3-dimethyl-1-(methylamino)-1-oxobutan-2-yl)-7-methyl-3-(3-(piperidin-1-yl)propyl)-5,6,7,8-tetrahydroimidazo[1,5-a]pyrazine-1-carboxamide] |  | > 10 | +
8 | CNC(=O)[C@@H](NC(=O)c1nc(CCCN2CCCC2)n2c1CN(C)CC2)C(C)(C)C [Compound 308, (S)-N-(3,3-dimethyl-1-(methylamino)-1-oxobutan-2-yl)-7-methyl-3-(3-(pyrrolidin-1-yl)propyl)-5,6,7,8-tetrahydroimidazo[1,5-a]pyrazine-1-carboxamide] |  | > 10 | −
9 | CNC(=O)[C@@H](NC(=O)c1nc(CCCN2CCOCC2)n2c1CN(C)CC2)C(C)(C)C [Compound 309, (S)-N-(3,3-dimethyl-1-(methylamino)-1-oxobutan-2-yl)-7-methyl-3-(3-morpholinopropyl)-5,6,7,8-tetrahydroimidazo[1,5-a]pyrazine-1-carboxamide] | > 10 | > 10 | 
10 | CCc1nc(C(=O)N[C@H](C(=O)NC)C(C)(C)C)c2n1CCN(C)C2 [Compound 310, (S)-N-(3,3-dimethyl-1-(methylamino)-1-oxobutan-2-yl)-3-ethyl-7-methyl-5,6,7,8-tetrahydroimidazo[1,5-a]pyrazine-1-carboxamide] |  | > 10 | −
11 | CNC(=O)[C@@H](NC(=O)c1nc(-c2ccccc2)n2c1CN(C(=O)OC(C)(C)C)CCC2)C(C)(C)C [Compound 312, (S)-tert-butyl 1-(3,3-dimethyl-1-(methylamino)-1-oxobutan-2-ylcarbamoyl)-3-phenyl-6,7-dihydro-5H-imidazo[1,5-a][1,4]diazepine-8(9H)-carboxylate] |  | > 10 | −
12 | CNC(=O)[C@@H](NC(=O)c1nc(-c2ccc(Cl)cc2F)n2c1CN(C(=O)OC(C)(C)C)CCC2)C(C)(C)C [Compound 313] |  | > 10 | −
13 | CNC(=O)[C@@H](NC(=O)c1nc(-c2ccccc2)n2c1CNCCC2)C(C)(C)C [Compound 314, (S)-N-(3,3-dimethyl-1-(methylamino)-1-oxobutan-2-yl)-3-phenyl-6,7,8,9-tetrahydro-5H-imidazo[1,5-a][1,4]diazepine-1-carboxamide] |  | > 10 | −
14 | CNC(=O)[C@@H](NC(=O)c1nc(-c2ccc(Cl)cc2F)n2c1CNCCC2)C(C)(C)C [Compound 315, (S)-3-(4-chloro-2-fluorophenyl)-N-(3,3-dimethyl-1-(methylamino)-1-oxobutan-2-yl)-6,7,8,9-tetrahydro-5H-imidazo[1,5-a][1,4]diazepine-1-carboxamide] | > 10 | > 10 | 
15 | CNC(=O)[C@@H](NC(=O)c1nc(-c2ccc(C)cc2F)n2c1CNCCC2)C(C)(C)C [Compound 316, (S)-N-(3,3-dimethyl-1-(methylamino)-1-oxobutan-2-yl)-3-(2-fluoro-4-methylphenyl)-6,7,8,9-tetrahydro-5H-imidazo[1,5-a][1,4]diazepine-1-carboxamide] |  | > 10 | −
16 | CCN1CCCn2c(-c3ccccc3)nc(C(=O)N[C@H](C(=O)NC)C(C)(C)C)c2C1 [Compound 318, (S)-N-(3,3-dimethyl-1-(methylamino)-1-oxobutan-2-yl)-8-ethyl-3-phenyl-6,7,8,9-tetrahydro-5H-imidazo[1,5-a][1,4]diazepine-1-carboxamide] |  | > 10 | +
17 | CNC(=O)[C@@H](NC(=O)c1nc(-c2ccccc2)n2c1CN(C(C)C)CCC2)C(C)(C)C [Compound 319, (S)-N-(3,3-dimethyl-1-(methylamino)-1-oxobutan-2-yl)-8-isopropyl-3-phenyl-6,7,8,9-tetrahydro-5H-imidazo[1,5-a][1,4]diazepine-1-carboxamide] | > 10 | > 10 | 
18 | CNC(=O)[C@@H](NC(=O)c1nc(-c2ccccc2)n2c1CN(CC(C)C)CCC2)C(C)(C)C [Compound 320, (S)-N-(3,3-dimethyl-1-(methylamino)-1-oxobutan-2-yl)-8-isobutyl-3-phenyl-6,7,8,9-tetrahydro-5H-imidazo[1,5-a][1,4]diazepine-1-carboxamide] |  | > 10 | −
19 | CNC(=O)[C@@H](NC(=O)c1nc(-c2ccccc2)n2c1CN(CC1CC1)CCC2)C(C)(C)C [Compound 321, (S)-8-(cyclopropylmethyl)-N-(3,3-dimethyl-1-(methylamino)-1-oxobutan-2-yl)-3-phenyl-6,7,8,9-tetrahydro-5H-imidazo[1,5-a][1,4]diazepine-1-carboxamide] |  | > 10 | −
20 | CNC(=O)[C@@H](NC(=O)c1nc(-c2ccc(Cl)cc2F)n2c1CN(CC(C)C)CCC2)C(C)(C)C [Compound 322, (S)-3-(4-chloro-2-fluorophenyl)-N-(3,3-dimethyl-1-(methylamino)-1-oxobutan-2-yl)-8-isobutyl-6,7,8,9-tetrahydro-5H-imidazo[1,5-a][1,4]diazepine-1-carboxamide] |  | > 10 | −
